# Values quoted from earlier work, collected in patent US20150150812A1, “CONTROLLED RELEASE FORMULATIONS WITH […]” (Egalet Ltd., priority 2009, published 2015).
# Tested on: postoperative patients
compound,measurement,setting,value
CN1CC[C@]23c4c5ccc(O)c4O[C@H]2[C@@H](O)C=C[C@H]3[C@H]1C5 [morphine],Calculated mean (SD) MEAC,"10 postoperative patients, Dahlström et al (1982)",16 (9) ng/mL
same,Estimated MEAC,"postoperative patients, patient-controlled analgesia, Graves et al (1985)",20 to 40 ng/mL
